Measured values reported in patent US4933368A, “N-phenylbenzamide derivatives” (Godecke Aktiengesellschaft, priority 1983, dated 1990).
Entries after “also recorded” stand apart in the source; their conditions may differ. Like-named read-outs stand apart in the source and are kept apart here.

Tests used:
allogeneic skin grafts [1] = test: Trial I, skin graft survival test in rats (recipient Long Evans, donor Lewis), vs azathioprine + methylprednisolone; type: in vivo
Experimental: Route of Intragastric via stomach tube,
suspended in 0.8% Methocel
(§7) Volume: 0.01 ml per gram body weight and dose
Trial I/from Day -3 before grafting to Day +6
Trial I/10 mg/kg over 6 days, afterwards 5 mg/kg
(§8) Two allogeneic skin grafts from a donor rat are transferred to a receiving rat from an unrelated inbred strain. The panniculus carnosus attached to the graft may either be removed by dissection (suprapannicular graft) or be left on the graft (subpannicular graft). Grafting is conducted on Day 0 under light ether narcosis subsequent to shaving and cleanup of the grafting sites. The grafts are fixed on the graft receptor sites by dressing with a suitable bandage. From Day +9 a protective colar is placed on the animals, the bandage removed, and the status of the grafts daily controlled. The assessment of the graft function is conducted by means of a graduation scale, which allows for differentiation of rejection corresponding to a three-degree of severity score. The trial ends on the day when 50% of the animals of one group have rejected both grafts. The lengthening of the graft survival time in comparison to the controls is determined in days.
Recipient: Long Evans .male., Donor: Lewis .male.. Two suprapannicular grafts were transferred from a donor to a recipient.

allogeneic skin grafts [2] = test: Trial II, skin graft survival test in rats (recipient Osborne Mendel, donor Lewis), vs azathioprine; type: in vivo; settings: far smaller quantities of Substance A
Experimental: Route of Intragastric via stomach tube,
suspended in 0.8% Methocel
as §7
Trial II/from Day -2 before grafting to Day +9
Trial II/4-8 mg/kg daily increasing over 12 days
as §8
Recipient: Osborne Mendel .male., Donor: Lewis .male.. Two suprapannicular grafts were transferred from a donor to a recipient.

allogeneic skin grafts [3] = test: Skin graft survival test in rhesus monkeys; type: in vivo, rhesus monkeys (Macaca mulatta); settings: for lengthening of the normal graft survival time: 10 mg/kg i.g. 1× daily for 10 days, vs normal survival stated as ten days
Experimental: Preparation: Freshly prepared before each
Route of Intragastric via stomach tube,
administration: suspended in 0.8% Methocel
Altogether four allogeneic skin grafts from two different donor animals are transferred crosswise to one unrelated receiving animal. At first the grafts are removed under ketamine narcosis from the shaven and cleaned stomach skin of the donor animals and freed of any fat attached. The four graft receptor sites are prepared on the shaven and cleaned back of the receiving animal under ketamine narcosis by removing suitably sized pieces of skin. Subsequent to successful hemostasis, the grafts are spread out on the graft receptor sites and sewn to the edges of the wound. The wound is covered with a suitable dressing material and this is fixed with an elastic bandage. The bandage is opened on the 5th, 7th, and 9th day after grafting and the function of the grafts examined. On the 9th day the bandage is no longer replaced. The graft function is then controlled daily until rejection has occurred.
Controls are dispensed within this trial on primates for ethical reasons. Comparisons are drawn with the normal survival of allogeneic skin grafts or historic controls, stated as ten days.

L1210 leukemia = type: in vivo, CD2 mice; settings: for Mean Survival Time: controls 8; for % Increase in Mean Survival Time (toxic death): mouse, in vivo, po
Description: (§1) Preparation: As suspension freshly prepared
(§2) before each administration
(§3) Route of Oral, suspended in 0.8%
(§4) administration: Methocel
(§5) Volume: 0.01 per gram body weight
(§6) daily for 9 days, if not
L 1210/Rij adaptation of L1210 leukemia in CD2 mice (C57B1×DBA2,Fl hybrid). On the day before administration of the substance 10^5 leukemic cells are inoculated intraperitoneally. The cages are controlled 2×X daily for dead animals. The terminal point is the mean survival of five mice/dosage compared with ten untreated controls.

Osteosarcoma C22LR = test: Osteosarcoma C22LR, growth retardation in mice; type: in vivo, BCBA mice; settings: for Surviving Animals: n = 5
Experimental: as §1, §2, §3, §4, §5, §6
Osteosarcoma. C22LR in BCBA mice (C57B1×CBA/Rij, Fl hybrid). The tumor is subcutaneously inoculated bilaterally into the sides. It is measured at least 2×weekly in three dimensions. The terminal point is the retardation of growth. It is defined as the difference of the average time in which the volume of five to ten tumors in five treated animals reaches a given value in comparison with that of five to ten tumors in the control animals. This value was determined as four times that of the average volume at commencement of treatment.

Electro-convulsion = test: Maximal electroconvulsion test; type: in vivo; settings: Mus musculus, po; i.g., mice
[4] = system: Mammary adenocarcinoma 16; test: Mammary adenocarcinoma 16 (CCTM test); type: in vivo, mice; settings: SC PO, Days 1-16, 56 mg/kg
Experimental: The CCTM assay assesses the antitumor activity of a test agent by measurement of the treatment-induced delay of tumor growth. Tumor growth delay is used because, unlike T/C type assays, the measured parameter is independent of time.
Test animals are Fl hybrid mice derived from the inbred strain of tumor origin. After the required mice are randomized, they receive SC implants of either trocar fragments (30-50 mg) or appropriate dilutions of tumor brei on Day 0. Samples for each donor tumor or from the final brei are incubated in thioglycolate media as a check for gross contamination of the tumor material. After tumor inoculation, the test mice are rerandomized and distributed to test group as per the specific test protocol.
Survival is checked daily for each test group. Both the number dead and the number living are counted and recorded. All dead mice are autopsied to ascertain the probable cause of death (drug or tumor). Clinical signs are observed and recorded for all test groups. Individual body weights are recorded at least weekly as directed in the specific test protocol. Each tumor is measured with calipers as per the protocol (usually two to three times/week). […]
This time may be calculated as:
Td=tumor volume doubling time (days), calculated from the slope of a long-linear least squares fit of the growth curve between 63 and 1000 mg for each control tumor. […]
T,C=median time in days for the tumor in a given group to reach a predetermined evaluation size (usually 750 mg). […] These values are calculated by log/linear interpolation between the nearest tumor measurements on either side of the evaluation size. […]
All tumor-free survivors (cures) are excluded from the calculation of T-C and cell kill values. Thus, all calculated end points represent the response of the treatment failures.

BN leukemia = BN leukemia (CCLS test); type: in vivo, mice; settings: for % T/C: IV PO
Description: The two types of assays used were the standard CCTM test for solid tumors and the CCLS test for leukemia.
The CCLS assay assesses the antitumor activity of a test agent by measurement of the treatment-induced increase in host lifespan. Only rapidly growing tumors that kill their respective hosts in less than 30 days are appropriate for life span assays.
Test animals are appropriate Fl hybrid mice derived for the inbred strain of tumor origin. After the required mice are randomized, they receive implants (IP, IV, IC, IM, or SC) of appropriately diluted ascites fluid or dilutions of tumor brei on Day 0. A sample from the final inocula is incubated in thioglycolate media as a check for gross contamination of the tumor material. After tumor inoculation, the test mice are rerandomized and distributed to test groups as per the specific test protocol.
Test agents are dissolved or suspended in any of several vehicles and are administered by the routes and treatment schedules specified on the test protocol. All animals are monitored for signs of acute toxicity and side effects.
Survival is checked daily for each test group. Both the number dead and the number living are counted and recorded. All dead mice are autopsied to ascertain the probably cause of death (drug or tumor). Clinical signs are observed and recorded for all test groups. Group body weights are recorded at least weekly as directed in the specific test protocol.
For most life span assays, any animal surviving more than 60 days is sacrificed and autopsied to determine the tumor burden present. It is possible that specific protocols involving unusual tumors or routes of tumor implantation will call for longer termination dates.
Td=tumor volume doubling time (days), calculated from the slope of a log-linear least square fit of the survival time vs inoculum curve for titrated inocula of tumor cells in untreated mice.
MLS=median life span, calculated by a method appropriate for grouped observations.
NOTE: Some adjustments in these calculations are made to make comparisons with the appropriate control cage more accurate. The slope of the titration curve (least squares fit) is used to calculate the Td for the tumor, but the life span increases of the treated animals are based only on the MLS of the control cage with the same initial inoculum (not on the least square approximation from the titration curve). This in theory reduces any effects from dilution, etc.
All tumor-free survivors (cures) are excluded from the calculation of MLS and cell kill values. Thus all calculated end points represent the response of the treatment failures.

Distribution coefficient = type: physicochemical; settings: n-octanol/water pH 7.4/20° C.; read-out: log VK (distribution coefficient)
Description: This is also the case with intragastric application, as shown by certain pharmacological effects.

[5] = system: peripheral leukocytes and lymphocytes; test: Influence on peripheral leukocytes and lymphocytes in rhesus monkeys; type: in vivo; settings: 1× daily 10 mg/kg i.g.
Experimental: Dosage: 1×daily 10 mg/kg i.g.
FIG. 1: Rhesus monkey ZE, .female.
FIG. 2: Rhesus monkey YL, .female.

humoral immunoresistance = test: Susceptibility to bacterial infections in treated rats; type: in vivo; settings: sustained period, high doses
Description: An inhibition of the humoral immune system (antibody-producing B-lymphocytes) by the substances of the invention and a possibility of therapy resulting from this, e.g., for autoaggression diseases, which are characterized by an increase in antibody production against the body's own tissues, can currently only be concluded indirectly.

[6] = system: murine tumors and human tumor xenografts; test: Antineoplastic activity in tumor-carrying animals, general statements; type: in vivo, mice
in vivo = settings: mouse, po
[7] = intragastric / oral, vs untreated control

## Nc1ccc(C(=O)Nc2ccccc2N)cc1 [Substance A, 4-Amino-N-(2'-aminophenyl)-benzamide]
Allogeneic skin grafts [1]; Trial I, vs azathioprine and methylprednisolone
  effect compared with standard medication: superior to an immunosuppressive standard medication comprising azathioprine and methylprednisolone
Allogeneic skin grafts [1]; rats, both trials, far smaller substance quantities
  effect compared with comparison medication: at least equally as effective as the comparison medication
Allogeneic skin grafts [2]
  effect compared with standard azathioprine: equally effective as the immunosuppressive standard azathioprine
Allogeneic skin grafts [3]; rhesus monkeys, 10 mg/kg i.g., 10 mg/kg
  immunosuppressive action: distinct immunosuppressive action; also recorded: markedly clear
Allogeneic skin grafts [3]; test animal YL
  lengthening of the normal graft survival time: four to five
Allogeneic skin grafts [3]; test animal ZE
  lengthening of the normal graft survival time: six to seven
L1210 leukemia; 4 × 180 mg/kg PO, n = 5
  Mean Survival Time: 5 days
L1210 leukemia; 4 × 240 mg/kg PO, n = 5
  Mean Survival Time: 5 days
L1210 leukemia; 7 × 120 mg/kg PO, n = 5
  Mean Survival Time: 6 days
L1210 leukemia; 9 × 60 mg/kg PO, n = 5
  % Increase in Mean Survival Time: 38%
  Mean Survival Time: 11 days
L1210 leukemia; moderate dosage
  assessment of activity: significant activity
L1210 leukemia; 120 mg/kg
  % Increase in Mean Survival Time (toxic death): toxic death
L1210 leukemia; 180 mg/kg
  % Increase in Mean Survival Time (toxic death): toxic death
L1210 leukemia; 240 mg/kg
  % Increase in Mean Survival Time (toxic death): toxic death
Osteosarcoma C22LR; 1 × 240 mg/kg PO
  Surviving Animals: 5/5
Osteosarcoma C22LR; 1 × 240 mg/kg PO, p = 0,001
  Retardation in Growth of Tumor (Days): 3,1 Days
Osteosarcoma C22LR; 2 × 180 mg/kg PO
  Retardation in Growth of Tumor (Days): 9,6 Days
  Surviving Animals: 1/5
Osteosarcoma C22LR; 4 × 120 mg/kg PO
  Retardation in Growth of Tumor (toxic death): toxic death
Osteosarcoma C22LR; 9 × 60 mg/kg IP, controls 5/5
  Surviving Animals: 5/5
Osteosarcoma C22LR; 9 × 60 mg/kg IP, p = 0,0001
  Retardation in Growth of Tumor (Days): 7,8 Days
Osteosarcoma C22LR; mouse, in vivo
  assessment of activity: good activity
Electro-convulsion
  ED50: 30 mg/kg
[4]
  (T-C) tumor growth delay: 11 days
  Cell Kill Gross: 3.0 log10
  Cell Kill Net: -1.2 logs
BN leukemia; BN leukemia
  anticancer activity: significant anticancer activity has been demonstrated and confirmed
BN leukemia; Days 1-5, 20 mg/kg
  % T/C: 356%
BN leukemia; Days 1-5, 30 mg/kg
  % T/C: 430%
BN leukemia; Days 7-11, 14-18, 20 mg/kg
  % T/C: 335%
BN leukemia; Days 7-11, 14-18, 21-25, 20 mg/kg
  % T/C: 474%
BN leukemia; Days 7-11, 14-18, 21-25, 28-32, 35-39, 8 mg/kg
  % T/C: 343%
Distribution coefficient
  logD: 2.2
[5]
  reduction of the peripheral lymphocytes: simultaneous distinct reduction of the peripheral lymphocytes
Humoral immunoresistance
  susceptibility to bacterial infections: increased susceptibility to bacterial infections
[6]; after just two days' rest
  tumor regression late in an extended treatment regimen: partial regression of tumors
[6]; [7]
  average survival time of tumor-carrying mice: significant increase in the average survival time
  retardation in tumor growth: distinct retardation in the growth of the tumor
[6]; mouse, in vivo
  schedule dependence of activity: schedule-dependent, with once daily treatment superior to either more highly fractionated or to intermittent regimens
[6]; oral, refractory tumor models in mice
  cures and cell kills: significant number of cures and cell kills
[6]; spectrum of preclinical tumor models
  anticancer activity, overall: significant activity against a spectrum of preclinical tumor models
In vivo
  LD50 at 168 h: 625 mg/kg
